Read-outs that look alike come from different tables or passages of the source. Where no end group is shown, it is not given here.
Key:
[1] = test system: Factor V deficient human plasma; assay: DDPTGA (reagent B) in FV depleted plasma; conditions: compounds at 50 μM and 80, 90 or 100 μM
Procedure: (§1) The Defined Dual-Pathway Thrombin Generation Assay is performed as described below, using a commercial test kit (Technothrombin TGA, Technoclone GmbH, Vienna, Austria). […] USA) are incubated four minutes at 37° C. Preferably, Reagent C high is used. Thrombin generation is started by the addition of 40 μl of one of several types of human plasma (37° C.). […] By deviating the original fluorescence data the amount of generated thrombin is calculated from a standard curve constructed using a concentration range of thrombin.
(§2) The in vitro thrombin generation assay based on the cleavage of Z-GGR-AMC to release the fluorophore AMC, described in the specific description, i.e. the Defined Dual-Pathway Thrombin Generation Assay was used to characterise the effect of the compounds in several depleted human plasmas. […] 10 μl peptide dilution, 40 μl TGA substrate and 40 μl plasma were used as described in the specific description.
(§3) The plasmas used in the experiments were fresh frozen and were deficient in Factor V, Factor VII/VIIa, Factor VIII, Factor X or Factor XI (George King Bio-Medical, Inc.). Residual coagulation factor levels of deficient plasmas were specified as less than 1%.
(§4) For each depleted plasma used in the experiments, compounds were tested at two concentrations, namely 50 μM and 80, 90 or 100 μM. A negative control was used, in which no test compound was included.

[2] = test system: Factor XI deficient human plasma; assay: DDPTGA (reagent B) in FXI depleted plasma; conditions: compounds at 50 μM and 80, 90 or 100 μM
Procedure: as §1, §2, §3, §4

[3] = test system: Factor VII/VIIa deficient human plasma; assay: DDPTGA (reagent B) in FVII depleted plasma; conditions: compounds at 50 μM and 80, 90 or 100 μM
Procedure: as §1, §2, §3, §4

[4] = test system: human FVIII inhibited plasma; assay: Defined Intrinsic Thrombin Generation Assay (DITGA, triggered by FXIa and phospholipids); assay type: biochemical; conditions: for Activity in the Defined Intrinsic Thrombin Generation Assay: summary
Acute toxicology in mice = assay type: in vivo, mouse; conditions: C57BL/6, mouse, in vivo, 60 minutes following administration, read-out: Max dose within toxicity category: No detected toxicity
Procedure: Toxicology studies involved monitoring of attitude changes due to toxic effects immediately after application and twice daily; monitoring of body weight; histopathology of brain, heart, kidney, liver, lung. Experiments were performed in C57131/6 mice.
C57BI/6 mice weighing 18-20 g were administered with compounds in a suitable vehicle i.v. in the tail vein or i.p. or s.c at 10 ml/kg. Quantities of the compounds administered were in the range of 0.075 to 125 mg/kg (i.v.), 15-125 mg/kg (i.p.) and 125 mg/kg (s.c.). There were four mice per group. Attitude changes due to toxic effects were monitored immediately after administration of the compound and for 60 minutes thereafter. Body weight was monitored for five days after administration. At day 5 after administration, mice were culled and autopsy performed. Brain, heart, kidney, liver, lung and spleen were biopsied.
In the above table, the maximum dose tested giving rise to no detected toxicity, some toxicity or severe toxicity over the period of 60 minutes following administration is reported. “No detected toxicity” indicates no acute toxic observations.

[5] = test system: Factor VIII deficient human plasma; assay: DDPTGA (reagent B) in FVIII depleted plasma; assay type: biochemical; conditions: compounds at 50 μM and 80, 90 or 100 μM; note: key: '+' means stimulates; '−' means does not stimulate
Description: Preferably, Reagent C high is used.

in vitro = conditions: human, plasma
Procedure: Half-life of compounds in human or mouse plasma, or percentage of compound remaining after an incubation in human or mouse plasma, is determined as follows. In the experimental procedure, test compound concentrations are 5 μM, prepared from test compound stock solutions of 10 mM in DMSO. Propantheline is used as a standard. […] All of the samples are incubated in a water bath at 37° C. […] After a chosen duration of incubation (generally at t=60 min) each sample is mixed with a further 500 μl acetonitrile. The samples are mixed on a vortex mixer for 30 s and placed on ice for 10 min and collected for centrifugation. Samples are centrifuged at 20 000 g for 10 min at 4° C. 500 μl supernatant is transferred into a new 1.5 ml Eppendorf tube and an equal volume of acetonitrile is added. The sample is mixed again for 30 s using a vortex mixer. After a second centrifugation step (20 000 g, 10 min, 4° C.) 250 μl of the supernatant is transferred into HPLC glass vials for HPLC-MS analysis. Conditions for performing HPLC are as follows: Injection-volume is set to 20 μl. Temperature is set to 25° C. A linear gradient from 95:5 to 5:95 water:acetonitrile both containing 0:05% trifluoroacetic acid (TFA) (v/v) is applied at a flow rate of 0.3 ml/min for 10 min. The PDA-detector is scanning from 210-400 nm.

FVIII deficient plasma = assay: Defined Dual-Pathway Thrombin Generation Assay (DDPTGA, reagent C high), FVIII deficient plasma; assay type: biochemical, human; conditions: FVIII deficient plasma
[6] = test system: Factor X deficient human plasma; assay: DDPTGA (reagent B) in FX depleted plasma; conditions: compounds at 50 μM and 80, 90 or 100 μM
Procedure: as §1, §2, §3, §4

FVIII inhibited plasma = assay: Defined Dual-Pathway Thrombin Generation Assay (DDPTGA, reagent C high), FVIII inhibited plasma; assay type: biochemical, human; conditions: for Peak IIa FEIBA EU / Peak IIa FVIIa EU / Peak Time FEIBA EU / Peak Time FVIIa EU: FVIII inhibited plasma

Procedure for physchem: Aqueous solubility is measured in PBS at pH 7.4 either in an assay provided by Cerep (France, Catalog ref. 900-11a) or according to the following protocol. The aim of this procedure is to determine the solubility of a drug candidate (analyte) in a buffer, by estimating the saturation concentration of the candidate in the buffer using HPLC. A known concentration of the candidate in an organic solvent is used as a standard. A stock solution of the test compound in DMSO must be prepared as the initial step. […] DMSO stock-solutions are diluted to a final concentration of 50 μM with DMSO (100% reference-solution) and buffer (test-solution) to provide a minimum volume of 500 μL of each. Both solutions are shaken at 25° C. at 950 rpm in an Eppendorf “thermomixer comfort” for at least 60 min. The suspension is centrifuged at 22 330 g for at least two min and 100 μL of the supernatant is transferred into polypropylene-inserts placed in glass vials and closed by snap-ring caps. Alternatively the solutions can be prepared in microtiter plates with half of the previously described starting solvent volume. For the determination of the solubility all samples are analyzed by HPLC in triplicate. Injection volume is at least 10 μL. The obtained data are analyzed by “Chemstation-software” (Agilent, Waldbronn, Germany). The peaks from the analyses of the organic solutions are integrated and the arithmetic mean is reported as “AUC 1” (reference area of known amount injected at the HPLC). […] The ratio of the mean “AUC 2” and “AUC 1” is calculated and thus the percentage of the dissolved amount of compound in buffer is obtained and solubility can be reported in μM.

Substance	Stimulation of thrombin generation [1]	Stimulation of thrombin generation [2]	solubility (physchem; pH 7.4, Aqueous solubility) [µM]	Stimulation of thrombin generation [3]	Thrombin peak time given as FEIBA equivalent activity ([4]; peptide 6.25 μM) [mU/ml]	Thrombin peak time given as FEIBA equivalent activity ([4]; peptide 12.5 μM) [mU/ml]	Thrombin peak time given as FEIBA equivalent activity ([4]; peptide 25 μM) [mU/ml]	Thrombin peak time given as FEIBA equivalent activity ([4]; peptide 50 μM) [mU/ml]	Thrombin peak time given as FEIBA equivalent activity ([4]; peptide 100 μM) [mU/ml]	Activity in the Defined Intrinsic Thrombin Generation Assay [4]	NOAEL at 1 h (Acute toxicology in mice; ip) [mg/kg]	Stimulation of thrombin generation [5]	remaining at 0.5 h, 5 μM (in vitro) [%]	Peak IIa FVIII EU (FVIII deficient plasma; peptide 50 μM)	Peak Time FVIII EU (FVIII deficient plasma; peptide 50 μM)	Peak IIa FVIII EU (FVIII deficient plasma; peptide 100 μM)	Peak Time FVIII EU (FVIII deficient plasma; peptide 100 μM)	Stimulation of thrombin generation [6]	Peak IIa FEIBA EU (FVIII inhibited plasma; peptide 50 μM)	Peak IIa FVIIa EU (FVIII inhibited plasma; peptide 50 μM)	further results
Ac-WDLYFEIVW-NH2 [Peptide A05]	−	+	6	+	390	487	562	631	816	possess activity	15	+	93	BLS (BLS = below lowest standard.)	BLS (BLS = below lowest standard.)	BLS (BLS = below lowest standard.)	BLS (BLS = below lowest standard.)	+	BLS (BLS = below lowest standard.)	BLS (BLS = below lowest standard.)	solubility kinetic (physchem; pH 7.4): 6 µM; Peak Time FEIBA EU (FVIII inhibited plasma; peptide 50 μM): BLS (BLS = below lowest standard.); Peak Time FVIIa EU (FVIII inhibited plasma; peptide 50 μM): BLS (BLS = below lowest standard.); Peak IIa FEIBA EU (FVIII inhibited plasma; peptide 100 μM): BLS (BLS = below lowest standard.); Peak IIa FVIIa EU (FVIII inhibited plasma; peptide 100 μM): BLS (BLS = below lowest standard.); Peak Time FEIBA EU (FVIII inhibited plasma; peptide 100 μM): BLS (BLS = below lowest standard.); Peak Time FVIIa EU (FVIII inhibited plasma; peptide 100 μM): BLS (BLS = below lowest standard.)
Ac-WDLYFEIVWE [Peptide A06]	+	+	164	+	571	750	843	919	879	possess activity	25	+	98	BLS (BLS = below lowest standard.)	BLS (BLS = below lowest standard.)	BLS (BLS = below lowest standard.)	BLS (BLS = below lowest standard.)	+	BLS (BLS = below lowest standard.)	BLS (BLS = below lowest standard.)	solubility (physchem; pH 7.4, Solubility in PBS): 164 µM; NOAEL at 1 h (Acute toxicology in mice; iv): 1 mg/kg; Peak Time FEIBA EU (FVIII inhibited plasma; peptide 50 μM): BLS (BLS = below lowest standard.); Peak Time FVIIa EU (FVIII inhibited plasma; peptide 50 μM): BLS (BLS = below lowest standard.); Peak IIa FEIBA EU (FVIII inhibited plasma; peptide 100 μM): BLS (BLS = below lowest standard.); Peak IIa FVIIa EU (FVIII inhibited plasma; peptide 100 μM): BLS (BLS = below lowest standard.); Peak Time FEIBA EU (FVIII inhibited plasma; peptide 100 μM): BLS (BLS = below lowest standard.); Peak Time FVIIa EU (FVIII inhibited plasma; peptide 100 μM): 0.4 nM; Activity in the Defined Dual-Pathway Thrombin Generation Assay (FVIII inhibited plasma; summary, FVIII inhibited or deficient plasma): possess activity
